# Assay results as given in patent US12582638B2, “Pharmaceutical composition for treating cancer, containing mTOR-signaling inhibitor as active ingredient” (KOREA ADVANCED INSTITUTE OF SCIENCE AND TECHNOLOGY, priority 2020, dated 2026).
# Tests used:
# NCI-H838 = assay: Cell viability, CellTiterGlo, 72 hours; assay type: cell-based; conditions: Homo sapiens, NCI-H838 cells, Lung
# In short: (§1)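 Cancer cell lines were exposed to various concentrations of lomitapide at 37° C in 5% or 10% CO2. After equilibration to room temperature for 1 hour, CellTiterGlo reagent was added, and luminescence read 1 hour later gave percent viability.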
# SK-N-SH = assay: Cell viability, CellTiterGlo, 72 hours; assay type: cell-based; conditions: Homo sapiens, SK-N-SH cells, Brain
# In short: as §1
# JIMT-1 = assay: Cell viability, CellTiterGlo, 72 hours; assay type: cell-based; conditions: Homo sapiens, JIMT-1 cells, Breast
# In short: as §1
# MCF-7 = assay: Cell viability, CellTiterGlo, 72 hours; assay type: cell-based; conditions: Homo sapiens, MCF7, MCF-7 cells, Breast
# In short: as §1
# LOVO = assay: Cell viability, CellTiterGlo, 72 hours; assay type: cell-based; conditions: Homo sapiens, LOVO cells, Colon
# In short: as §1
# HCC38 = assay: Cell viability, CellTiterGlo, 72 hours; assay type: cell-based; conditions: Homo sapiens, HCC38 cells, Breast
# In short: as §1
# OV56 = assay: Cell viability, CellTiterGlo, 72 hours; assay type: cell-based; conditions: OV56 cells, Ovary
# In short: as §1
# H1299 = assay: Cell viability, CellTiterGlo, 72 hours; assay type: cell-based; conditions: Homo sapiens, NCI-H1299, H1299 cells, Lung
# In short: as §1
# JVM-3 = assay: Cell viability, CellTiterGlo, 72 hours; assay type: cell-based; conditions: Homo sapiens, JVM-3 cells, Blood
# In short: as §1
# MDA MB 435 = assay: Cell viability, CellTiterGlo, 72 hours; assay type: cell-based; conditions: Homo sapiens, MDA MB 435 cells, Skin
# In short: as §1
# EFM-19 = assay: Cell viability, CellTiterGlo, 72 hours; assay type: cell-based; conditions: Homo sapiens, EFM-19 cells, Breast
# In short: as §1
# HL-60 = assay: Cell viability, CellTiterGlo, 72 hours; assay type: cell-based; conditions: Homo sapiens, HL-60 cells, Blood
# In short: as §1
# MOLM-13 = assay: Cell viability, CellTiterGlo, 72 hours; assay type: cell-based; conditions: Homo sapiens, MOLM-13 cells, Blood
# In short: as §1
# MV4-11 = assay: Cell viability, CellTiterGlo, 72 hours; assay type: cell-based; conditions: Homo sapiens, MV4-11 cells, Blood
# In short: as §1
# DLD-1 = assay: Cell viability, CellTiterGlo, 72 hours; assay type: cell-based; conditions: Homo sapiens, DLD-1 cells, Colon
# In short: as §1
# NCI-H2286 = assay: Cell viability, CellTiterGlo, 72 hours; assay type: cell-based; conditions: Homo sapiens, NCI-H2286 cells, Lung
# In short: as §1
# SW620 = assay: Cell viability, CellTiterGlo, 72 hours; assay type: cell-based; conditions: Homo sapiens, SW-620, SW620 cells, Colon
# In short: as §1
# B16F10 melanoma = assay: Mouse homograft tumor model, B16F10 melanoma; assay type: in vivo; conditions: B16F10 in C57B6/N mice
# Description: For mouse homograft tumor model, experiments were conducted using female C57B6/N mice (wild-type, 6 weeks old) with MC38 colorectal cancer and B16F10 melanoma cell lines. MC38 colorectal cancer and B16F10 melanoma cell lines were each subcutaneously injected at a dose of 2×10^5 cells. Lomitapide used in the two models was formulated with 45% saline, 40% PEG300, 5% Tween-80, and 10% DMSO.
# For B16F10 skin melanoma, from 10 days after the tumor injection, lomitapide was intraperitoneally injected at a dose of 40 mg/kg three times at days 3, 5, and 7, and anti-PD-1 mAb (clone RMP1-14, BioXCell, West Lebanon, NH, USA) or rat IgG2a iso-type control (clone 2A3, BioXCell, BE0089) was administered at a dose of 20 mg/kg at days 1, 3, 5, and 7. The mice were euthanized immediately when signs of pain were observed, the body weight was reduced by 20% compared to the normal weight, or the tumor volume exceeded 1,000 mm^3 (FIGS. 19a and 19b).
# HCT116 = assay: RNA-seq assay, gene set enrichment, pathway enrichment and DEG analysis; assay type: cell-based, human; conditions: FIG. 12
# Description: For the final detection of significant gene-sets, gene annotation databases (KEGG pathway, Gene Ontology, etc.) with various biological information about genes were used to discover various gene-sets by grouping genes with specific functions among all the genes used in the RNA-seq experiment. Significant genes were determined with reference to a difference in expression values between the two classes within each gene-set, and statistically significant gene-set was finally detected based on the significant genes. […] In DEG analysis, expression values of genes are measured and statistically processed to select a significant gene candidate group (differentially expression genes) with a difference in expression between a control and a comparison group.
compound,measurement,setting,value
"O=C(NC1CCN(CCCCC2(C(=O)NCC(F)(F)F)c3ccccc3-c3ccccc32)CC1)c1ccccc1-c1ccc(C(F)(F)F)cc1 [lomitapide, N-(2,2,2-trifluoroethyl)-9-[4-[4-[[[4′-(trifluoromethyl)[1,1′-biphenyl]2-yl]carbonyl]amino]-1-piperidinyl]butyl]-9H-fluoren-9-carboxamide]",IC50,NCI-H838,3.8 µM
same,IC50,SK-N-SH,3.2 µM
same,IC50,JIMT-1,3.3 µM
same,IC50,MCF-7,2.8 µM
same,IC50,LOVO,3.4 µM
same,IC50,HCC38,6 µM
same,IC50,OV56,4.8 µM
same,IC50,H1299,4.8 µM
same,IC50,JVM-3,4 µM
same,IC50,MDA MB 435,3 µM
same,IC50,EFM-19,3.6 µM
same,IC50,HL-60,3.3 µM
same,IC50,MOLM-13,6.3 µM
same,IC50,MV4-11,6.2 µM
same,IC50,DLD-1,4.5 µM
same,IC50,NCI-H2286,3.4 µM
same,IC50,SW620,3.6 µM
same,tumor growth compared to the groups treated with the anti-PD-1 mAb,"B16F10 melanoma; lomitapide 40 mg/kg i.p., anti-PD-1 mAb 20 mg/kg",greatly suppressed and reduced
same,tumor growth compared to the control,B16F10 melanoma; lomitapide 40 mg/kg intraperitoneally three times,significantly suppressed and reduced tumor growth
same,"expression of autophagy-related genes ATG family, ULK1, and DDIT4 (DEG analysis)",HCT116,significantly expressed
